Measurements: patent US20060160197A1 (priority 2004, published 2006)

Experiments:
Format in all cases: physicochemical
[1] = Example 1 reactive solvent extraction, 70% Alamine 336/10% MIBK/20% kerosene, 25° C.; settings: pH 2 to 3
Excerpt: A water-immiscible organic solvent (i.e., “first phase”) is subsequently mixed with the second phase, and forms a two-phase system (a water immiscible organic phase and an aqueous phase). The glycolic acid in the second phase forms a complex with the tertiary trialkyl amine in the first phase.
(§1) A variety of analytical methods can be employed to analyze the reactants and products produced using the present methods include HPLC, GC, ion selective electrodes, MS, NMR, etc. HPLC was used to measure glycolic acid and various related products. Briefly, samples are diluted with water (as needed to be within HPLC detection range) and mixed 1:1 with 0.2 M n-propanol in water (HPLC internal standard). HPLC Analytical Method: (BioRad HPX 87H ion exclusion column (BioRad, Hercules, Calif.), 300 mm×7.8 mm; 0.01 N H2SO4 mobile phase; 1.0 mL/min flow at 50° C.; 10 μL injection volume; RI detector and UV 210 nm, 20 min analysis time). HPLC Equipment: (Waters 2695 ‘Alliance’ Separations Module, 2410 Refractive Index Detector, 2487 Dual λ Absorbance Detector and Empower Pro Software (Waters Corp, Milford, Mass.).
Solvent Extraction Using Approximately 70% C8-C10 Trialkylamine in Combination with 10% Methyl Isobutyl Ketone and 20% Kerosene at 25° C.
Into a 4-mL glass reactor equipped with magnetic stir bar was placed 1 mL of a mixed solvent containing 70% (volume/volume) of trialkyl amine (Alamine® 336; Cognis Corp., Cincinnati, Ohio), 10% (volume/volume) methyl isobutyl ketone (MIBK) and 20% (volume/volume) kerosene. The pH of an aqueous solution of ammonium glycolate (5 wt % to 40 wt %) was adjusted to about pH 2 to 3 with concentrated sulfuric acid (H2SO4), then 1 mL of the resulting aqueous solution was added to the reactor. The resulting mixture was stirred for 30 minutes at 25° C.

[2] = Example 5 reactive solvent extraction, 90% Alamine 336/10% MIBK, 75° C.; settings: pH 2 to 3
Procedure: as §1
Solvent Extraction Using Approximately 90% C8-C10 Trialkylamine in Combination with 10% Methyl Isobutyl Ketone at 75° C.
Into a 4-mL glass reactor equipped with magnetic stir bar was placed 1 mL of a mixed solvent containing 90% (volume/volume) Alamine® 336 (Cognis) and 10% (volume/volume) methyl isobutyl ketone (MIBK). The pH of an aqueous solution of ammonium glycolate (5 wt % to 40 wt %) was adjusted to pH 2 to 3 with concentrated sulfuric acid, then 1 mL of the resulting aqueous solution was added to the reactor. The resulting mixture was stirred for 30 minutes at 75° C.

[3] = Example 7 reactive solvent extraction, 50% Alamine 336/10% MIBK/40% kerosene, 75° C.; settings: pH 2 to 3
Procedure: as §1
Solvent Extraction Using Approximately 50% C8-C10 Trialkylamine in Combination with 10% Methyl Isobutyl Ketone and 40% Kerosene at 75° C.
Into a 4-mL glass reactor equipped with magnetic stir bar was placed 1 mL of a mixed solvent containing 50% (volume/volume) Alamine® 336 (Cognis), 10% (volume/volume) methyl isobutyl ketone (MIBK) and 40% (volume/volume) kerosene. The pH of an aqueous solution of ammonium glycolate (5 wt % to 40 wt %) was adjusted to pH 2 to 3 with concentrated sulfuric acid, then 1 mL of the resulting aqueous solution was added to the reactor. The resulting mixture was stirred for 30 minutes at 75° C.

[4] = Example 11 reactive solvent extraction, 70% Alamine 336/30% 1-octanol, 75° C.; settings: pH 2 to 3
Procedure: as §1
Solvent Extraction Using Approximately 70% C8-C10 Trialkylamine in Combination with 30% 1-Octanol at 75° C.
Into a 4-mL glass reactor equipped with magnetic stir bar was placed 1 mL of a mixed solvent containing 70% (volume/volume) Alamine® 336 (Cognis), 30% (volume/volume) 1-octanol. The pH of an aqueous solution of ammonium glycolate (5 wt % to 40 wt %) was adjusted to pH 2 to 3 with concentrated sulfuric acid, then 1 mL of the resulting aqueous solution was added to the reactor. The resulting mixture was stirred for 30 minutes at 75° C.

[5] = Example 12 reactive solvent extraction, 90% Alamine 336/10% toluene, 25° C.; settings: pH 2 to 3
Procedure: as §1
Solvent Extraction Using Approximately 90% C8-C10 Trialkylamine in Combination with 10% Toluene at 25° C.
Into a 4-mL glass reactor equipped with magnetic stir bar was placed 1 mL of a mixed solvent containing 90% (volume/volume) Alamine® 336 (Cognis), 10% (volume/volume) toluene. The pH of an aqueous solution of ammonium glycolate (5 wt % to 40 wt %) was adjusted to pH 2 to 3 with concentrated sulfuric acid, then 1 mL of the resulting aqueous solution was added to the reactor. The resulting mixture was stirred for 30 minutes at 25° C.

[6] = Example 22 back extraction using water from loaded solvent (70% trialkylamine/30% toluene), 140° C.; settings: back extraction into deionized water, 70% C8-C10 trialkylamine/30% toluene, 40 psig nitrogen
Procedure: as §1
Back Extraction Using Water from a Loaded Solvent of Approximately 70% C8-C10 Trialkylamine in Combination with 30% Toluene
Into a 85-mL pressure reaction glass tube (pressure reaction vessel, from Andrews Glass Co.) equipped with magnetic stir bar and double dip tubes was placed 10 mL deionized water and 10 mL of the loaded solvent (see Example 16). The vessel was then closed, and the headspace purged with nitrogen. The resulting mixture was stirred for 60 minutes at 140° C. under 40 psig (˜275.8 kPa) nitrogen. The stirring was stopped and the two phases allowed to separate at 140° C., then the organic phase was sampled under pressure through the top dip tube into a Hoke cylinder, and aqueous phases was sampled under pressure through the bottom dip tube into another Hoke cylinder.

[7] = initial 3.6 wt % glycolic acid in aqueous phase
[8] = initial 8.5 wt % glycolic acid in aqueous phase
[9] = initial 12.1 wt % glycolic acid in aqueous phase
[10] = initial 16.1 wt % glycolic acid in aqueous phase
[11] = initial 20.6 wt % glycolic acid in aqueous phase
[12] = initial 25.1 wt % glycolic acid in aqueous phase
[13] = initial 29.1 wt % glycolic acid in aqueous phase
[14] = initial 32.8 wt % glycolic acid in aqueous phase

Structure (SMILES): O=C(O)CO [glycolic acid]
- Partition coefficient of glycolic acid (organic wt %/aqueous wt %) [1, 7]: 1.1
- Partition coefficient of glycolic acid (organic wt %/aqueous wt %) [1, 8]: 1.1
- Partition coefficient of glycolic acid (organic wt %/aqueous wt %) [1, 9]: 1.0
- Partition coefficient of glycolic acid (organic wt %/aqueous wt %) [1, 10]: 0.94
- Partition coefficient of glycolic acid (organic wt %/aqueous wt %) [1, 11]: 0.90
- Partition coefficient of glycolic acid (organic wt %/aqueous wt %) [1, 12]: 0.85
- Partition coefficient of glycolic acid (organic wt %/aqueous wt %) [1, 13]: 0.73
- Partition coefficient of glycolic acid (organic wt %/aqueous wt %) [1, 14]: 0.67
- Partition coefficient (wt % org./wt % aq.) [2, 7]: 0.75
- Partition coefficient (wt % org./wt % aq.) [2, 8]: 0.70
- Partition coefficient (wt % org./wt % aq.) [2, 9]: 0.76
- Partition coefficient (wt % org./wt % aq.) [2, 10]: 0.73
- Partition coefficient (wt % org./wt % aq.) [2, 11]: 0.79
- Partition coefficient (wt % org./wt % aq.) [2, 12]: 0.87
- Partition coefficient (wt % org./wt % aq.) [2, 13]: 0.84
- Partition coefficient (wt % org./wt % aq.) [2, 14]: 0.86
- Partition coefficient (wt % org./wt % aq.) [3, 7]: 0.38
- Partition coefficient (wt % org./wt % aq.) [3, 8]: 0.32
- Partition coefficient (wt % org./wt % aq.) [3, 9]: 0.35
- Partition coefficient (wt % org./wt % aq.) [3, 10]: 0.28
- Partition coefficient (wt % org./wt % aq.) [3, 11]: 0.33
- Partition coefficient (wt % org./wt % aq.) [3, 12]: 0.35
- Partition coefficient (wt % org./wt % aq.) [3, 13]: 0.35
- Partition coefficient (wt % org./wt % aq.) [3, 14]: 0.35
- Partition coefficient (wt % org./wt % aq.) [4, 7]: 0.69
- Partition coefficient (wt % org./wt % aq.) [4, 8]: 0.74
- Partition coefficient (wt % org./wt % aq.) [4, 9]: 0.64
- Partition coefficient (wt % org./wt % aq.) [4, 10]: 0.68
- Partition coefficient (wt % org./wt % aq.) [4, 11]: 0.62
- Partition coefficient (wt % org./wt % aq.) [4, 12]: 0.61
- Partition coefficient (wt % org./wt % aq.) [4, 13]: 0.50
- Partition coefficient (wt % org./wt % aq.) [4, 14]: 0.52
- Partition coefficient (wt % org./wt % aq.) [5, 7]: 1.22
- Partition coefficient (wt % org./wt % aq.) [5, 8]: 1.41
- Partition coefficient (wt % org./wt % aq.) [5, 9]: 1.46
- Partition coefficient (wt % org./wt % aq.) [5, 10]: 1.23
- Partition coefficient (wt % org./wt % aq.) [5, 11]: 1.20
- Partition coefficient (wt % org./wt % aq.) [5, 12]: 1.26
- Partition coefficient (wt % org./wt % aq.) [5, 13]: 1.00
- Partition coefficient (wt % org./wt % aq.) [5, 14]: 0.86
- Partition coefficient (wt % org./wt % aq.) ([6]; initial 3.7 wt % glycolic acid in loaded solvent): 0.26
- Partition coefficient (wt % org./wt % aq.) ([6]; initial 10.7 wt % glycolic acid in loaded solvent): 0.30
- Partition coefficient (wt % org./wt % aq.) ([6]; initial 14.2 wt % glycolic acid in loaded solvent): 0.38
- Partition coefficient (wt % org./wt % aq.) ([6]; initial 15.7 wt % glycolic acid in loaded solvent): 0.28
